Assay results as given in patent publication US20230127046A1, “G9a INHIBITOR” (RIKEN, priority 2019, published 2023).
Read-outs that look alike come from different tables or passages of the source.

What was measured:
[1] = tested on: human lung cancer cell line NCI-H460; experiment: Colony formation inhibition test; assay type: cell-based; conditions: 288 h, NCI-H460 cells, culture for 12 days, read-out: Inhibitory activity (colony formation GI50)
Method: Each compound was evaluated for its colony formation inhibitory activity against a human lung cancer cell line NCI-H460. The NCI-H460 cells were cultured in a DMEM medium (FUJIFILM Wako Pure Chemical Corp., 044-29765) containing 10% fetal bovine serum and 4 mM glutamine. The cultured cells were washed with PBS, then detached with trypsin/EDTA, and adjusted to 2×10^3 cells/mL to prepare a cell suspension. The cell suspension was inoculated at 1 mL/well to a 12-well microplate (Corning Inc., 3513), and the test compound (DMSO solution) was added at 1 μL/well, followed by culture for 12 days under conditions of 37° C. and 5% CO2. DMSO was added at 1 μL/well to control wells with a final DMSO concentration set to 0.1%. The medium was discarded every day or every two days, and a fresh medium was added at 1 mL/well. The test compound or DMSO was added at 1 μL/well. The proportion of a colony of each well was measured using a high-speed cell imaging system (Tomy Digital Biology Co., Ltd., Celigo). The ratio of the colony in each compound-supplemented group was determined with the ratio of the colony formed in a test compound solution-unsupplemented well defined as 1. A compound concentration necessary for suppressing the rate of colony formation by 50% of the control (GI50) was calculated using data analysis software Origin (LightStone Crop.).

[2] = biological target: T1, recombinant human G9a protein (Homo sapiens, UniProt Q96KQ7); experiment: G9a inhibitory activity test (ALPHA); assay type: biochemical
T1 construct: purchased BPS Bioscience Inc. #51001
T1 sequence (Q96KQ7 785-1210 limits assumed): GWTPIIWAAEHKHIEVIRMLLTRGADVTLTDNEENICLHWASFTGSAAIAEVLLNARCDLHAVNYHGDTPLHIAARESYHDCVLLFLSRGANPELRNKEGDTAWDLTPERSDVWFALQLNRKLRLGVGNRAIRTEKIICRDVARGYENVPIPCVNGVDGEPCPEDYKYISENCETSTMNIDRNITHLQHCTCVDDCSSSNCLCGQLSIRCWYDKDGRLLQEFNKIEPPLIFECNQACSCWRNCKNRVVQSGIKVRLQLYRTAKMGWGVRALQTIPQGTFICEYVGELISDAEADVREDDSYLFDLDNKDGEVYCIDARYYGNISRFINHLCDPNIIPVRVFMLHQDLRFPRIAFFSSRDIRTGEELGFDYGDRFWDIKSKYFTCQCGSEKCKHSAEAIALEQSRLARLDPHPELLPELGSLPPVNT
Summary of the method: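 Human G9a (0.05 to 0.1 nM) in Tris pH 9.0 buffer preincubated with compound 10 min, then biotinylated histone H3 (1-21) peptide and SAM mixed 1:1 from 500 nM and 150 μM solutions, 1 h at room temperature. H3K9me2 detected by AlphaLISA acceptor/streptavidin donor beads; IC50 from percent inhibition relative to no-compound and no-enzyme controls.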

[3] = tested on: intracellular histone H3K9 dimethylation level in human lung cancer cell line NCI-H460; experiment: Histone H3K9 dimethylation inhibitory activity test (Western blotting); assay type: cell-based; conditions: NCI-H460 cells, 72 hours
Method: The inhibitory activity of each compound against G9a was evaluated by adding the compound to a human lung cancer cell line NCI-H460, and detecting change in intracellular histone H3K9 dimethylation level by Western blotting. The NCI-H460 cells were cultured in a DMEM medium (FUJIFILM Wako Pure Chemical Corp., 044-29765) containing 10% fetal bovine serum and 4 mM glutamine. The cultured cells were washed with PBS and then detached with trypsin/EDTA, and the cell suspension was adjusted to 2.5×10^4 cells/mL. The cell suspension was inoculated at 500 μL/well to a 24-well microplate (Thermo Fisher Scientific, Inc., 142475) and cultured overnight under conditions of 37° C. and 5% CO2. On the next day, the test compound (solution in DMSO) was added at 0.5 µL/well and reacted for 72 hours under conditions of 37° C. and 5% CO2. DMSO was added at 0.5 μL/well to control wells (final DMSO concentration: 0.1%). The medium was removed, and the cells were washed with PBS. Then, a 2×SDS-PAGE sample buffer (100 mM Tris-HCl (pH 6.8), 4% sodium lauryl sulfate, 2% 2-mercaptoethanol, 20% glycerol, 0.005% bromophenol blue) was added at 50 μL/well to prepare a sample. The recovered sample was heated at 95 to 100° C. for 10 minutes, and protein was separated by polyacrylamide gel electrophoresis (SDS-PAGE). Subsequently, the separated protein was transferred to a polyvinylidene fluoride (PVDF) membrane by semi-dry blotting. The PVDF membrane was dipped in 3% skimmed milk (dissolved in PBS containing 0.05% Tween 20 (PBST)), blocked at room temperature for 30 to 60 minutes, then dipped in an anti-dimethylated histone H3K9 antibody (Abcam plc, ab1220) diluted 1000-fold with 3% skimmed milk, and reacted overnight at 4° C. On the next day, the PVDF membrane was washed three times with PBST, then dipped in a HRP (horseradish peroxidase)-labeled anti-mouse IgG antibody diluted 10000-fold with skimmed milk, and reacted at room temperature for 1 hour. The PVDF membrane was washed three times with PBST, then dipped in chemiluminescent substrate solution Immobilon Western Chemiluminescent HRP Substrate (Merck Millipore, WBKLS0500), incubated at room temperature for 5 minutes, and photographed with Lumino Image Analyzer (GE Healthcare Japan Corp., ImageQuant LAS4000).
Then, the antibody was stripped from the PVDF membrane using re-probe reagent EzReprobe (ATTO Corp., WSE-7240), and trimethylated histone H3K9 and histone H3 were detected by the same procedures as above. An anti-trimethyl histone H3K9 antibody (39161, diluted 1000-fold) from Active Motif, Inc. and an anti-histone H3 antibody (ab1791, diluted 2000-fold) from Abcam plc were used in the detection. The band of each protein was quantified from the taken image using image processing software ImageJ (NIH). The ratios of dimethylated histone H3K9 and trimethylated histone H3K9 to the histone H3 protein were calculated with the numeric value of a compound-unsupplemented sample defined as 100%. A compound concentration at which the ratio of dimethylated histone H3K9 was 50% was calculated as a 50% inhibition concentration (IC50 value) using data analysis software Origin (LightStone Corp.).

[4] = biotinylated histone H3 peptide (1-21), SAM, read-out: Inhibitory activity (G9a IC50 value)
[5] = read-out: Inhibitory activity (G9a IC50)

Row | SMILES | GI50 [1] | IC50 [2, 4] | IC50 [3] | IC50 [2, 5]
1 | Cc1ccc(NC(=O)C(CCC2CC2)NC(=O)c2[nH]c3c(c2C)C(=O)CC(C)(C)C3)cn1 (stereo not drawn) [Example 1-80] | 500 to 1000 nM | ≥ 200 nM | 50 to 500 nM | –
2 | COc1ccc(NC(=O)[C@H](CCC2CC2)NC(=O)c2ccc(Nc3cc(C)nc(C)c3)cc2)cn1 [Example 6-89] | < 500 nM | – | 50 to 500 nM | < 50 nM
3 | CCCC[C@H](NC(=O)c1[nH]c2c(c1C)C(=O)CC(C)(C)C2)c1nc2ccc(OCC3CCNCC3)cc2[nH]1 [Example 35-2] | ≥ 1000 nM | – | ≥ 500 nM | < 50 nM
4 | COc1ccc(NC(=O)C(CCC2CC2)NC(=O)c2ccc(Nc3cc(C)nc(C)c3)cc2)cn1 (stereo not drawn) [Example 6-62] | < 500 nM | – | 50 to 500 nM | < 50 nM
5 | Cc1c(C(=O)NC(CCC2CC2)C(=O)Nc2ccc(C#N)cc2)[nH]c2c1C(=O)CC(C)(C)C2 (stereo not drawn) [Example 1-79] | < 500 nM | 50 to 200 nM | < 50 nM | –
6 | COc1ccc(NC(=O)C(CCC2CC2)NC(=O)c2ccc(N(C)c3ccncc3)cc2)cn1 (stereo not drawn) [Example 6-55] | < 500 nM | – | 50 to 500 nM | < 50 nM
7 | Cc1c(C(=O)N[C@@H](CCC2CC2)C(=O)Nc2ccccc2)[nH]c2c1C(=O)CC(C)(C)C2 [Example 6-26] | < 500 nM | – | < 50 nM | < 50 nM
8 | COc1ccc(NC(=O)C(CCC2CC2)NC(=O)c2ccc(Nc3ccncc3)cc2)cn1 (stereo not drawn) [Example 6-49] | < 500 nM | – | 50 to 500 nM | < 50 nM
9 | CCCC[C@H](NC(=O)c1[nH]c2c(c1C)C(=O)CC(C)(C)C2)C(=O)NCc1ccc(N2CCN(C)CC2)cc1 [Example 22-2] | 500 to 1000 nM | – | < 50 nM | 50 to 200 nM
10 | CCCC[C@H](NC(=O)c1[nH]c2c(c1C)C(=O)CC(C)(C)C2)C(=O)Nc1ccccc1 [Example 6-33] | ≥ 1000 nM | – | 50 to 500 nM | ≥ 200 nM
11 | COc1ccc(NC(=O)[C@H](CCC2CC2)NC(=O)c2ccc(Nc3ccncc3)cc2)cn1 [Example 6-88] | < 500 nM | – | < 50 nM | < 50 nM
12 | CCCCC(NC(=O)c1ccc(N2CCN(C)CC2)cc1Cl)C(=O)Nc1ccc(OC2CCN(C)CC2)nc1 (stereo not drawn) [Example 11-4] | ≥ 1000 nM | – | ≥ 500 nM | ≥ 200 nM
13 | Cc1c(C(=O)NC(CCC2CC2)C(=O)N2CCc3ccccc32)[nH]c2c1C(=O)CC(C)(C)C2 (stereo not drawn) [Example 1-81] | < 500 nM | 50 to 200 nM | 50 to 500 nM | –
14 | Cc1c(C(=O)NC(CCC2CC2)C(=O)Nc2ccccc2)[nH]c2c1C(=O)CC(C)(C)C2 (stereo not drawn) [Example 6-17] | 500 to 1000 nM | – | < 50 nM | 50 to 200 nM
15 | CCCC[C@H](NC(=O)c1[nH]c2c(c1C)C(=O)CC(C)(C)C2)c1nc2ccc(OC3CCNCC3)cc2[nH]1 [Example 35-1, (S)-3,6,6-trimethyl-4-oxo-N-(1-(6-(piperidin-4-yloxy)-1H-benzo[d]imidazol-2-yl)pentyl)-4,5,6,7-tetrahydro-1H-indole-2-carboxamide] | ≥ 1000 nM | – | ≥ 500 nM | 50 to 200 nM
